According to patent US5593985A, “Cephalosporin compounds” (priority 1994, dated 1997):
In brackets after ≈: the same amount, converted by molar mass. Where two headings read alike, the source gives them in different places.

Columns and labels:
Format in all cases: cell-based
[1] = test system: Streptococcus pyogenes A 77; test: MIC, standard strain 2; settings: A77, S. pyogenes A 77, two-fold dilution, Muller Hinton agar, 10^7 CFU/ml, 37° C., 18 hours, read-out: Minimal Inhibitory Concentration(MIC)
Experimental: (§1) In order to illustrate antibiotic effectiveness of the compounds of the present invention, the minimal inhibitory concentrations (MIC's) of the representative compounds were determined against standard strains and compared with ceftazidime and cefpirome, which were used as control compounds.
(§2) The MIC values were taken by employing a two-fold dilution method: that is, two-fold serial dilutions of each of the test compounds were made from initial concentration of […]; each 1.5 ml of them was dispersed in 13.5 ml of Muller Hinton agar medium to adjust to […]; the standard test strain which had the concentration of 10^7 CFU/ml was inoculated by medium;and these were incubated at 37° C. for 18 hours.
(§3) The test used twenty kinds of standard test strains which induced urinary tract infections, respiratory organ infections, skin soft tissue infections, plasma infections, gastrointestinal infections, central nervous system infections, most of which produce β-lactamase. The standard test strains used are as follows:
2. Streptococcus pyogenes A 77

Escherichia coli 1507 E = test: MIC, standard strain 11; settings: E. coli 1507 E, two-fold dilution, Muller Hinton agar, 10^7 CFU/ml, 37° C., 18 hours, read-out: Minimal Inhibitory Concentration(MIC)
Experimental: as §1, §2
(§4) The test used twenty kinds of standard test strains which induced urinary tract infections, respiratory organ infections, skin soft tissue infections, plasma infections, gastrointestinal infections, central nervous system infections, most of which produce β-lactamase.

[2] = test system: Pseudomonas aeruginosa 1771M; test: MIC, standard strain 15; settings: 18 h, read-out: Minimal Inhibitory Concentration(MIC)
Experimental: as §1, §2, §3
15. Pseudomonas aeruginosa 1771M

[3] = test system: Pseudomonas aeruginosa 1592 E; test: MIC, standard strain 13; settings: P. aeruginosa 1592 E, two-fold dilution, Muller Hinton agar, 10^7 CFU/ml, 37° C., 18 hours, read-out: Minimal Inhibitory Concentration(MIC)
Experimental: as §1, §2, §3
13. Pseudomonas aeruginosa 1592 E

[4] = test system: Enterobacter cloacae 1321 E; test: MIC, standard strain 20; settings: read-out: Minimal Inhibitory Concentration(MIC)
Experimental: as §1, §2, §3
20. Enterobacter cloacae 1321 E

Streptococcus faecium 8b = test: MIC, standard strain 3; settings: Enterococcus faecium, read-out: Minimal Inhibitory Concentration(MIC)
Experimental: as §1, §2, §3
3. Streptococcus faecium 8b

Salmonella typhimurium = test: MIC, standard strain 16; settings: Salmonella enterica, read-out: Minimal Inhibitory Concentration(MIC)
Experimental: as §1, §2, §3
16. Salmonella typhimurium

[5] = test system: Streptococcus pyogenes A 308; test: MIC, standard strain 1; settings: read-out: Minimal Inhibitory Concentration(MIC)
Experimental: as §1, §2, §3
1. Streptococcus pyogenes A 308

[6] = test system: Pseudomonas aeruginosa 1771; test: MIC, standard strain 14; settings: Pseudomonas aeruginosa; P. aeruginosa 1771; two-fold dilution, Muller Hinton agar, 10^7 CFU/ml, 37° C., 18 hours; read-out: Minimal Inhibitory Concentration(MIC)
Experimental: as §1, §2, §3
14. Pseudomonas aeruginosa 1771

[7] = test system: Pseudomonas aeruginosa 9.027; test: MIC, standard strain 12; settings: Pseudomonas aeruginosa; P. aeruginosa 9.027; two-fold dilution, Muller Hinton agar, 10^7 CFU/ml, 37° C., 18 hours; read-out: Minimal Inhibitory Concentration(MIC)
Experimental: as §1, §2, §3
12. Pseudomonas aeruginosa 9.027

Escherichia coli TEM = test: MIC, standard strain 10; settings: 18 h, read-out: Minimal Inhibitory Concentration(MIC)
Experimental: as §1, §2, §4

Escherichia coli 0 55 = test: MIC, standard strain 7; settings: 055, E. coli 0 55, two-fold dilution, Muller Hinton agar, 10^7 CFU/ml, 37° C., 18 hours, read-out: Minimal Inhibitory Concentration(MIC)
Experimental: as §1, §2, §4

Escherichia coli DC 0 = test: MIC, standard strain 8; settings: DC0, E. coli DC 0, two-fold dilution, Muller Hinton agar, 10^7 CFU/ml, 37° C., 18 hours, read-out: Minimal Inhibitory Concentration(MIC)
Experimental: as §1, §2, §4

[8] = test system: Staphylococcus aureus 285; test: MIC, standard strain 5; settings: read-out: Minimal Inhibitory Concentration(MIC)
Experimental: as §1, §2, §3
5. Staphylococcus aureus 285

[9] = test system: Enterobacter cloacae P 99; test: MIC, standard strain 19; settings: P99, 18 h, read-out: Minimal Inhibitory Concentration(MIC)
Experimental: as §1, §2, §3
19. Enterobacter cloacae P 99

Escherichia coli DC 2 = test: MIC, standard strain 9; settings: DC2, E. coli DC 2, two-fold dilution, Muller Hinton agar, 10^7 CFU/ml, 37° C., 18 hours, read-out: Minimal Inhibitory Concentration(MIC)
Experimental: as §1, §2, §4

[10] = test system: Klebsiella aerogenes 1552 E; test: MIC, standard strain 18; settings: K. aerogenes 1552 E, two-fold dilution, Muller Hinton agar, 10^7 CFU/ml, 37° C., 18 hours, read-out: Minimal Inhibitory Concentration(MIC)
Experimental: as §1, §2, §3
18. Klebsiella aerogenes 1552 E

[11] = test system: Staphylococcus aureus 503; test: MIC, standard strain 6; settings: read-out: Minimal Inhibitory Concentration(MIC)
Experimental: as §1, §2, §3
6. Staphylococcus aureus 503

[12] = test system: Staphylococcus aureus SG 511; test: MIC, standard strain 4; settings: read-out: Minimal Inhibitory Concentration(MIC)
Experimental: as §1, §2, §3
4. Staphylococcus aureus SG 511

[13] = E. cloacae 1321 E, two-fold dilution, Muller Hinton agar, 10^7 CFU/ml, 37° C., 18 hours
[14] = S. typhimurium, two-fold dilution, Muller Hinton agar, 10^7 CFU/ml, 37° C., 18 hours
[15] = Staphylococcus aureus, S. aureus 285, two-fold dilution, Muller Hinton agar, 10^7 CFU/ml, 37° C., 18 hours
[16] = SG511, S. aureus SG 511, two-fold dilution, Muller Hinton agar, 10^7 CFU/ml, 37° C., 18 hours
[17] = S. faecium 8b, two-fold dilution, Muller Hinton agar, 10^7 CFU/ml, 37° C., 18 hours
[18] = A308, S. pyogenes A 308, two-fold dilution, Muller Hinton agar, 10^7 CFU/ml, 37° C., 18 hours
[19] = Staphylococcus aureus, S. aureus 503, two-fold dilution, Muller Hinton agar, 10^7 CFU/ml, 37° C., 18 hours

SMILES	MIC [1] [µg/mL]	MIC (Escherichia coli 1507 E) [µg/mL]	MIC [2] [µg/mL]	MIC [3] [µg/mL]	MIC [4, 13] [µg/mL]	MIC (Salmonella typhimurium; [14]) [µg/mL]	MIC ([5]; A308, 18 h) [µg/mL]	MIC [6] [µg/mL]	MIC [7] [µg/mL]	MIC (Escherichia coli TEM) [µg/mL]	MIC (Escherichia coli 0 55) [µg/mL]	MIC (Escherichia coli DC 0) [µg/mL]	MIC [8, 15] [µg/mL]	MIC [9] [µg/mL]	MIC (Escherichia coli DC 2) [µg/mL]	MIC [10] [µg/mL]	MIC [12, 16] [µg/mL]	MIC (Streptococcus faecium 8b; [17]) [µg/mL]	MIC [5, 18] [µg/mL]	MIC [11, 19] [µg/mL]	further results
CO/N=C(\C(=O)N[C@@H]1C(=O)N2C(C(=O)[O-])=C(C[n+]3ccc(NC(C)=O)c4c3CCC4)CS[C@H]12)c1csc(N)n1 [Example 17, 7-β-[(Z)-2-(2-aminothiazol-4-yl)-2-methoxyiminoacetamido]-3-[(4-acetamido-2,3-cyclopenteno-1-pyridinium)methyl]-3-cephem-4-carboxylate]	< 2	25 (≈ 43.7 µM)	1560 (≈ 2730 µM)	6250 (≈ 10900 µM)	13 (≈ 22.7 µM)	49 (≈ 85.7 µM)	< 2	6250 (≈ 10900 µM)	12500 (≈ 21900 µM)	25 (≈ 43.7 µM)	25 (≈ 43.7 µM)	13 (≈ 22.7 µM)	1560 (≈ 2730 µM)	12500 (≈ 21900 µM)	13 (≈ 22.7 µM)	13 (≈ 22.7 µM)	781 (≈ 1370 µM)	–	–	–	MIC (Streptococcus faecium 8b; 8B, 18 h): 100000 µg/mL (≈ 175000 µM); MIC ([11]; Staphylococcus aureus, 503, 18 h): 195 µg/mL (≈ 341 µM)
CO/N=C(\C(=O)N[C@@H]1C(=O)N2C(C(=O)[O-])=C(C[n+]3ccc(NC=O)c4c3CCC4)CS[C@H]12)c1csc(N)n1 [Example 19]	< 2	98 (≈ 176 µM)	1560 (≈ 2800 µM)	12500 (≈ 22400 µM)	7 (≈ 12.6 µM)	195 (≈ 350 µM)	–	12500 (≈ 22400 µM)	12500 (≈ 22400 µM)	49 (≈ 87.9 µM)	7 (≈ 12.6 µM)	13 (≈ 23.3 µM)	391 (≈ 701 µM)	12500 (≈ 22400 µM)	13 (≈ 23.3 µM)	49 (≈ 87.9 µM)	391 (≈ 701 µM)	25000 (≈ 44800 µM)	< 2	98 (≈ 176 µM)	–
NC(=O)c1cc[n+](CC2=C(C(=O)[O-])N3C(=O)[C@@H](NC(=O)/C(=N\OCCF)c4csc(N)n4)[C@H]3SC2)c2c1CCC2 [Example 14, 7-β-[(Z)-2-(2-aminothiazol-4-yl)-2-(2-fluoroethoxyimino)acetamido]-3-[(2,3-cyclopenteno-4-carbamoyl-l-pyridinium)methyl]-3-cephem-4-carboxylate]	13 (≈ 22 µM)	49 (≈ 83.1 µM)	391 (≈ 663 µM)	6250 (≈ 10600 µM)	–	49 (≈ 83.1 µM)	–	781 (≈ 1320 µM)	6250 (≈ 10600 µM)	98 (≈ 166 µM)	13 (≈ 22 µM)	49 (≈ 83.1 µM)	3120 (≈ 5300 µM)	12500 (≈ 21200 µM)	49 (≈ 83.1 µM)	49 (≈ 83.1 µM)	781 (≈ 1320 µM)	25000 (≈ 42400 µM)	13 (≈ 22 µM)	781 (≈ 1320 µM)	MIC ([4]; 1321E, 18 h): 25 µg/mL (≈ 42.4 µM)
CO/N=C(\C(=O)N[C@@H]1C(=O)N2C(C(=O)[O-])=C(C[n+]3ccc(-c4nc(C)cs4)c4c3CCC4)CS[C@H]12)c1csc(N)n1 [Example 25, 7-β-[(Z)-2-(2-aminothiazol-4-yl)-2-methoxyiminoacetamido]-3-[(2,3-cyclopenteno-4-(4-methylthiazol-2-yl)-1-pyridinium)methyl]-3-cephem-4-carboxylate]	2 (≈ 3.27 µM)	781 (≈ 1280 µM)	1560 (≈ 2560 µM)	50000 (≈ 81700 µM)	98 (≈ 160 µM)	–	–	50000 (≈ 81700 µM)	100000 (≈ 163000 µM)	391 (≈ 639 µM)	195 (≈ 319 µM)	25 (≈ 40.9 µM)	781 (≈ 1280 µM)	25000 (≈ 40900 µM)	25 (≈ 40.9 µM)	781 (≈ 1280 µM)	–	12500 (≈ 20400 µM)	4 (≈ 6.54 µM)	195 (≈ 319 µM)	MIC (Salmonella typhimurium; TYPHIMURIUM, 18 h): 391 µg/mL (≈ 639 µM); MIC ([12]; SG511, 18 h): 391 µg/mL (≈ 639 µM)
CCO/N=C(\C(=O)N[C@@H]1C(=O)N2C(C(=O)[O-])=C(C[n+]3ccc(C(N)=O)c4c3CCC4)CS[C@H]12)c1csc(N)n1 [Example 13, 7-β-[(Z)-2-(2-aminothiazol-4-yl)-2-ethoxyiminoacetamido]-3-[(2,3-cyclopenteno-4-carbamoyl-1-pyridinium)methyl]-3-cephem-4-carboxylate]	4 (≈ 7 µM)	98 (≈ 171 µM)	195 (≈ 341 µM)	3120 (≈ 5470 µM)	25 (≈ 43.7 µM)	49 (≈ 85.7 µM)	13 (≈ 22.7 µM)	1560 (≈ 2730 µM)	6250 (≈ 10900 µM)	195 (≈ 341 µM)	25 (≈ 43.7 µM)	98 (≈ 171 µM)	3120 (≈ 5470 µM)	12500 (≈ 21900 µM)	49 (≈ 85.7 µM)	49 (≈ 85.7 µM)	781 (≈ 1370 µM)	50000 (≈ 87500 µM)	–	391 (≈ 684 µM)	–
CO/N=C(\C(=O)N[C@@H]1C(=O)N2C(C(=O)[O-])=C(C[n+]3ccc(C(=O)O)c4c3CCC4)CS[C@H]12)c1csc(N)n1 [Example 2]	7 (≈ 12.5 µM)	25 (≈ 44.8 µM)	391 (≈ 700 µM)	12500 (≈ 22400 µM)	25 (≈ 44.8 µM)	49 (≈ 87.7 µM)	–	3120 (≈ 5590 µM)	12500 (≈ 22400 µM)	781 (≈ 1400 µM)	25 (≈ 44.8 µM)	49 (≈ 87.7 µM)	6250 (≈ 11200 µM)	100000 (≈ 179000 µM)	49 (≈ 87.7 µM)	25 (≈ 44.8 µM)	6250 (≈ 11200 µM)	25000 (≈ 44800 µM)	25 (≈ 44.8 µM)	3120 (≈ 5590 µM)	–
CCOC(=O)c1cc[n+](CC2=C(C(=O)[O-])N3C(=O)[C@@H](NC(=O)/C(=N\OC)c4csc(N)n4)[C@H]3SC2)c2c1CCC2 [Example 1]	7 (≈ 11.9 µM)	49 (≈ 83.5 µM)	391 (≈ 666 µM)	12500 (≈ 21300 µM)	25 (≈ 42.6 µM)	49 (≈ 83.5 µM)	7 (≈ 11.9 µM)	6250 (≈ 10700 µM)	12500 (≈ 21300 µM)	391 (≈ 666 µM)	49 (≈ 83.5 µM)	49 (≈ 83.5 µM)	–	25000 (≈ 42600 µM)	25 (≈ 42.6 µM)	49 (≈ 83.5 µM)	1560 (≈ 2660 µM)	25000 (≈ 42600 µM)	–	781 (≈ 1330 µM)	MIC ([8]; Staphylococcus aureus, 285, 18 h): 3120 µg/mL (≈ 5330 µM)
